# Measurements reported in ChEMBL document CHEMBL3244348, “Antiallergic agents. Xanthone-2,7-dicarboxylic acid derivatives” (1977).
# Tested on: Rattus norvegicus
# Test: Antiallergic activity in homocytotropic antiovalbumin antiserum-injected Sprague-Dawley rat assessed as inhibition of passive cutaneous anaphylaxis wheal reaction at 100 mg/kg, po administered 1 hr prior to ovalbumin challenge measured 20 mins after antigen challenge
# Format: functional
smiles,measurement,value
O=C(O)c1ccc2oc3ccc(C(=O)O)cc3c(=O)c2c1,inhibition in vivo at 100 mg/kg,1%
CCOC(=O)c1ccc2oc3ccc(C(=O)OCC)cc3c(=O)c2c1,inhibition in vivo at 100 mg/kg,8%
NC(=O)c1ccc2oc3ccc(C(N)=O)cc3c(=O)c2c1,inhibition in vivo at 100 mg/kg,34%
CNC(=O)c1ccc2oc3ccc(C(=O)NC)cc3c(=O)c2c1,inhibition in vivo at 100 mg/kg,19%
CCCNC(=O)c1ccc2oc3ccc(C(=O)NCCC)cc3c(=O)c2c1,inhibition in vivo at 100 mg/kg,19%
COCCOCCCNC(=O)c1ccc2oc3ccc(C(=O)NCCCOCCOC)cc3c(=O)c2c1,inhibition in vivo at 100 mg/kg,19%
CN(C)C(=O)c1ccc2oc3ccc(C(=O)N(C)C)cc3c(=O)c2c1,inhibition in vivo at 100 mg/kg,69%
CCN(CC)C(=O)c1ccc2oc3ccc(C(=O)N(CC)CC)cc3c(=O)c2c1,inhibition in vivo at 100 mg/kg,53%
O=C(c1ccc2oc3ccc(C(=O)N(C4CCCCC4)C4CCCCC4)cc3c(=O)c2c1)N(C1CCCCC1)C1CCCCC1,inhibition in vivo at 100 mg/kg,42%
C=CCN(CC=C)C(=O)c1ccc2oc3ccc(C(=O)N(CC=C)CC=C)cc3c(=O)c2c1,inhibition in vivo at 100 mg/kg,51%
O=C(c1ccc2oc3ccc(C(=O)N4CCCCC4)cc3c(=O)c2c1)N1CCCCC1,inhibition in vivo at 100 mg/kg,57%
O=C(c1ccc2oc3ccc(C(=O)N4CC5CCC(CC5)C4)cc3c(=O)c2c1)N1CC2CCC(CC2)C1,inhibition in vivo at 100 mg/kg,48%
O=C(c1ccc2oc3ccc(C(=O)N4CCOCC4)cc3c(=O)c2c1)N1CCOCC1,inhibition in vivo at 100 mg/kg,42%
